Measurements taken from PMC12067278, “A responsive living material prepared by diffusion reveals extracellular enzyme activity of cyanobacteria” (Proceedings of the National Academy of Sciences of the …, 2025).

Target: T1, AmiX (Synpcc7942_1548 gene product, putative amidase) (Synechococcus elongatus, UniProt Q31MZ1)
T1 construct: expressed in E. coli BL21, clarified lysate assayed; ORF PCR product ~1,320 bp
T1 sequence (Q31MZ1 1-439 limits assumed): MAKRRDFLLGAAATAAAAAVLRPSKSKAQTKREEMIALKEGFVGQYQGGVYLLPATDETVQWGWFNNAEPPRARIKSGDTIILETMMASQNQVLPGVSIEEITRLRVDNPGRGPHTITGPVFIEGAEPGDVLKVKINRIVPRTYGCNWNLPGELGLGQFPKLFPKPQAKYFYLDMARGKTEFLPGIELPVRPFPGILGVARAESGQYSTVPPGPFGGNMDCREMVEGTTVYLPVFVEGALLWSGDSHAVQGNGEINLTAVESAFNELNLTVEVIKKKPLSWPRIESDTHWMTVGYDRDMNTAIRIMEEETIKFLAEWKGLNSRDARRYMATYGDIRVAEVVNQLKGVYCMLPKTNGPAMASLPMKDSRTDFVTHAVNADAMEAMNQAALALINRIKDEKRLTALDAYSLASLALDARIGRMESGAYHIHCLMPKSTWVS
Assay: NBD-Cl amine-detection fluorescence assay ([…] nm), E. coli lysate
Type: biochemical
Conditions: 50 mM potassium phosphate pH 7.5, 2.5 mM NIPAm (50 uL of 50 mM in 1 mL), 20 h, high lysate background

C=CC(=O)NC(C)C [NIPAm, N-isopropylacrylamide]
NBD-Cl amine-detection fluorescence assay (485/538 nm), E. coli lysate: the lysate containing both the S. elongatus amidase and NIPAm produced significantly more fluorescence
